For one assay, the target named is T1, Type-1 angiotensin II receptor (Oryctolagus cuniculus, UniProt P34976).
T1 sequence (P34976 whole entry): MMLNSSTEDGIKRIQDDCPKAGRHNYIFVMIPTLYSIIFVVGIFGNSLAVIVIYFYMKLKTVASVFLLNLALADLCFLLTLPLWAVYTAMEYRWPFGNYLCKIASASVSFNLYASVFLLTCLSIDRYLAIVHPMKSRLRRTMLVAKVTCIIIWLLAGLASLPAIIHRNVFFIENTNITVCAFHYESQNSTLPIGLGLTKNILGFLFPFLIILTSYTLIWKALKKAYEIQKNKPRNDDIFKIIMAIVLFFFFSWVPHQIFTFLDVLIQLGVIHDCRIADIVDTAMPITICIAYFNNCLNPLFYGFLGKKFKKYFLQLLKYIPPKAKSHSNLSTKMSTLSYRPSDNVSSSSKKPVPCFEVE
In words: pA2 value determined in vitro against angiotensin II receptor, type 1 using rabbit aortic rings. To be noted: read-out: pA2 (converted).
With `CCCCN(Cc1ccc(-c2ccccc2-c2nn[nH]n2)cc1)c1ncnc2c1nc(C)n2C`, the Kb was 9.33 nM.
The same measure, in the same setting: the value for `CCCCN(Cc1ccc(-c2ccccc2-c2nn[nH]n2)cc1)c1ncnc2c1nc(C#N)n2C` was 72.4 nM; that for `CCCCN(Cc1ccc(-c2ccccc2-c2nn[nH]n2)cc1)c1ncnc2c1nc(S(C)(=O)=O)n2C` was greater than 100 nM; that for `CCc1nc(NCc2ccc(-c3ccccc3-c3nn[nH]n3)cc2)c2cc(OC)ccc2n1` was 2.63 nM.
On the same count and under the same terms, next, `CCCCN(Cc1ccc(-c2ccccc2-c2nn[nH]n2)cc1)c1ncnc2c1ncn2C`: 8.32 nM; `CCCCN(Cc1ccc(-c2ccccc2-c2nn[nH]n2)cc1)c1ncnc2c1nc(O)n2C`: 29.5 nM; `CCCCN(Cc1ccc(-c2ccccc2-c2nn[nH]n2)cc1)c1ncnc2c1nnn2C`: 10.7 nM.
Take `CCCN(Cc1ccc(-c2ccccc2-c2nn[nH]n2)cc1)c1ncccc1C(=O)O`: the Kb was 0.0501 nM.
The same measure, in the same setting: the value for `CCCCN(Cc1ccc(-c2ccccc2-c2nn[nH]n2)cc1)c1ncnc2ccc(O)cc12` was 87.1 nM; that for `CCCN(Cc1ccc(-c2ccccc2-c2nnn[nH]2)cc1)c1ncnc2cccc(C(=O)OC)c12` was greater than 100 nM; that for `CCCN(Cc1ccc(-c2ccccc2-c2nn[nH]n2)cc1)c1ncnc2oc(C)nc12` was 97.7 nM.
On to `CCCCN(Cc1ccc(-c2ccccc2-c2nnn[nH]2)cc1)c1ncnc2cc(C(=O)O)ccc12`, for which the Kb was 35.5 nM.
Consider `CCCCN(Cc1ccc(-c2ccccc2-c2nnn[nH]2)cc1)c1ncnc2nc[nH]c12`, for which the Kb is 6.76 nM.
The same measure, in the same setting: the value for `CCCN(Cc1ccc(-c2ccccc2-c2nnn[nH]2)cc1)c1ncnc2[nH]cnc12` was 12 nM; that for `CCCN(Cc1ccc(-c2ccccc2-c2nnn[nH]2)cc1)c1ncnc2c1ncn2CC(=O)O` was 7.24 nM; that for `CCCCN(Cc1ccc(-c2ccccc2-c2nnn[nH]2)cc1)c1ncnc2nccnc12` was 115 nM.
The same measure, in the same setting: the value for `CCCN(Cc1ccc(-c2ccccc2-c2nn[nH]n2)cc1)c1ncnc2ncn(C)c12` was 933 nM; that for `CCc1nc(NCc2ccc(-c3ccccc3-c3nn[nH]n3)cc2)c2ccccc2n1` was 2.95 nM.
Same read-out and setting: next, `CCCN(Cc1ccc(-c2ccccc2-c2nn[nH]n2)cc1)c1[nH]cnc2nncc1-2`: 339 nM; `CCCN(Cc1ccc(-c2ccccc2-c2nn[nH]n2)cc1)c1ncnc2cccc(OC)c12`: greater than 100 nM; `CCCCN(Cc1ccc(-c2ccccc2-c2nnn[nH]2)cc1)c1ncnc2c1nc(C(N)=O)n2C`: greater than 100 nM.
As to `CCCCN(Cc1ccc(-c2ccccc2-c2nn[nH]n2)cc1)c1ncnc2ccc(C(=O)O)nc12`, the Kb is 6.46 nM.
The same measure, in the same setting: the value for `CCCCN(Cc1ccc(-c2ccccc2-c2nn[nH]n2)cc1)c1ncnc2ccc(C(=O)OC)cc12` was 107 nM; that for `CCCN(Cc1ccc(-c2ccccc2-c2nn[nH]n2)cc1)c1ncnc2c1ncn2Cc1ccccc1` was 151 nM; that for `CCCN(Cc1ccc(-c2ccccc2-c2nn[nH]n2)cc1)c1ncncc1C(=O)O` was 0.117 nM.
As to `CCc1nc(NCc2ccc(-c3ccccc3-c3nnn[nH]3)cc2)c2ncn(C)c2n1`, the Kb is 5.13 nM.
Still for that read-out and setting: next, `CCc1nc(N(C)Cc2ccc(-c3ccccc3-c3nn[nH]n3)cc2)c2cc(OC)ccc2n1`: 47.9 nM.
The same measure, in the same setting: the value for `CCc1nc(NCc2ccc(-c3ccccc3-c3nn[nH]n3)cc2)c2c[nH]nc2n1` was 138 nM.
On to `CCc1nc(NCc2ccc(-c3ccccc3-c3nn[nH]n3)cc2)c2cc(C(=O)O)ccc2n1`, for which the Kb is 2.57 nM.
Same read-out and setting: the value for `CCCCN(Cc1ccc(-c2ccccc2-c2nnn[nH]2)cc1)c1ncnc2ccc(C(=O)O)cc12` was 9.55 nM; that for `CCCCN(Cc1ccc(-c2ccccc2-c2nnn[nH]2)cc1)c1ncnc2cccnc12` was 776 nM; that for `CCCCN(Cc1ccc(-c2ccccc2-c2nnn[nH]2)cc1)c1ncnc2ccc(OC)cc12` was 47.9 nM.
The same measure, in the same setting: the value for `CCCN(Cc1ccc(-c2ccccc2-c2nnn[nH]2)cc1)c1ncnc2ncn(CC(=O)O)c12` was 74.1 nM.
For `CCCCN(Cc1ccc(-c2ccccc2-c2nnn[nH]2)cc1)c1ncnc2c1nc(CC)n2C`, the Kb was 30.2 nM.
Same read-out and setting: next, `CCc1nc(NCc2ccc(-c3ccccc3-c3nnn[nH]3)cc2)c2c(OC)cccc2n1`: 8.51 nM; `CCCCN(Cc1ccc(-c2ccccc2-c2nnn[nH]2)cc1)c1ncnc2c1nc(-c1ccccc1)n2C`: greater than 100 nM; `CCCCN(Cc1ccc(-c2ccccc2-c2nn[nH]n2)cc1)c1ncnc2c1nc([S+](C)[O-])n2C` (stereo not given): 41.7 nM.
Same read-out and setting: the value for `CCCCN(Cc1ccc(-c2ccccc2-c2nn[nH]n2)cc1)c1[nH]cnc2nc(C)nc1-2` was 7.76 nM.
The same measure, in the same setting: next, `CCCN(Cc1ccc(-c2ccccc2-c2nnn[nH]2)cc1)c1ncnc2cccc(C(=O)O)c12`: greater than 100 nM.

The next assay has as its system Rattus norvegicus. Briefly: Dose (po) required to normalize blood pressure in renal artery-ligated rats. It is filed as functional.
Details: not given
For `CCCN(Cc1ccc(-c2ccccc2-c2nn[nH]n2)cc1)c1ncccc1C(=O)O`, the Dose was 0.3 mg/kg.

For the origin of these results see ChEMBL document CHEMBL1127868, “Synthesis and In Vitro evaluation of fused ring heterocyle-containing angiotensin II antagonists” (Bioorg Med Chem Lett, 1994).
